PMC11148772, “Inhibition of protein translational machinery in triple-negative breast cancer as a promising therapeutic strategy” (Cell Reports Medicine, 2024)
Values joined by “and” are separate entries in the source; they are usually repeats but may differ in a detail not shown here. Equal entries are not always repeated.

Assays:
[1] = system: CA1262-PDX-TNBC; assay: Patient-derived xenograft; assay type: in vivo, mouse; conditions: 50 mg/kg orally, NSG mice
Text: (§1) Different patient-derived xenograft (PDX) of TNBC were used in this study. The Institutional Animal Care & Use Program of Oregon Health and Science University approved the protocol (#IP00003247). SUTI151-PDX-TNBC was kindly provided by Stefanie S. Jeffrey, MD, Stanford University, CA, USA.[48] CA1616-PDX-TNBC, CA1262-PDX-TNBC, and MA2821-PDX-TNBC were procured from the NCI Patient-Derived Models Repository (PDMR). Information of the PDX samples from NCI can be accessed at https://pdmr.cancer.gov/models/pdx.htm. 6–8 weeks old NSG (female) mice were anesthetized with isoflurane and tumor cells were xenografted into 5th mammary fat pad. Post-xenograft, once tumors reached a size of 50–100 mm^3, SU056 treatment (50 mg/kg body weight administered by oral gavage, 5 days per week) was started. At the end of treatment, mice were euthanized under deep anesthesia and tumors were surgically removed, measured, and weighed.

[2] = system: CA1616-PDX-TNBC; assay: Patient-derived xenograft; assay type: in vivo, mouse; conditions: 50 mg/kg orally, NSG mice
Text: as §1

[3] = system: MA2821-PDX-TNBC; assay: Patient-derived xenograft; assay type: in vivo, mouse; conditions: 50 mg/kg orally, NSG mice
Text: as §1

[4] = system: SUTI151-PDX-TNBC; assay: Patient-derived xenograft; assay type: in vivo, mouse; conditions: 50 mg/kg orally, NSG mice
Text: as §1

[5] = Pharmacokinetics study; assay type: in vivo, mouse; conditions: 20 mg/kg oral
Protocol: Female C57BL/6J mice of 6–7 weeks were purchased from Jackson Laboratory and housed under standard laboratory conditions. SU056 (20 mg/kg) was given by oral gavage. Blood (200–300 μL) was collected retro-orbitally in EDTA-treated tubes after 15, 30, 60, 120, 240 and 360 min of SU056 administration. Blood plasma collected by centrifugation (7000 rpm; 10 min). The concentration of SU056 in plasma was analyzed using an Agilent 6490 iFunnel triple quadrupole mass spectrometer, coupled with an Agilent 1290 infinity II UHPLC. A ZORBAX C18 analytical column (Eclipse Plus, 2.1 × 50 mm, 1.8 μm particle size) was employed in the study. To create the mobile phase, a solution was prepared with 60% water buffered with 0.1% formic acid and 4mM ammonium formate, along with a solution of 40% acetonitrile buffered with 0.1% formic acid. The mobile phase flow rate was set to 0.4 mL/min and the column temperature was adjusted to 30°C. Positive ion mode was selected for operating the electrospray ionization source. Mass spectrometer parameters were optimized as: source temperature 550°C, nebulizer gas (nitrogen) 20 psi, ion spray (IS) voltage 5000 V, collision energy 21 V. Multiple reaction monitoring (MRM) method was used for the detection of SU056 and an internal standard (IS), 4-(2-hydroxyethyl)-6-methoxy-9-phenyl-4,9-dihydrofuro[3,4-b]quinolin-1(3H)-one, a similar analogue of SU056. […] The calibration curve, created with known concentrations of SU056 and IS, enabled the calculation of unknown concentrations of SU056 in plasma at different time points. A 5 μL plasma was taken from each sample and mixed with a 10 μL of IS solution and 990 μL of MS-grade acetonitrile then vortexed for 30 s followed by a 5 min incubation at RT. The mixture was subjected to centrifugation at 11,000 RPM for 15 min at 4°C, leading to the collection of the supernatant which was further cleaned by re-centrifugation. The concentration of SU056 was determined using the HPLC/MS MRM method with each of the three protein-free plasma fractions.[32]

[6] = molecular target: kinases; assay: KINOMEscan multi-kinase profiling; assay type: binding; conditions: 10 μM
Protocol: The multi-kinase inhibition profile of SU056 was determined via the KINOMEScan screening platform (Eurofins discovery). The screening was performed at 10 μM of SU056. The kinase dendrogram was developed using the TREEspot interaction maps online application (Eurofins Discovery). The results are expressed as residual activity (% Control).

[7] = system: pharmacology panel (receptors, channels, transporters, enzymes); assay: In vitro radioligand binding and enzyme and uptake assay panel; conditions: 10 μM
Protocol: The compound SU056 was tested for its radioligand binding and enzyme and uptake characteristics by Eurofins lab services (Eurofins discovery). The screening was performed at 10 μM of SU056. The binding was calculated as % inhibition of the binding of a radioactively labeled ligand specific to each target. The SU056 enzyme inhibition effect was determined as % inhibition of control enzyme activity.

[8] = molecular target: T1, YB-1 and RPL11 interaction (Homo sapiens, UniProt P67809); assay: Immunoprecipitation of YB-1; assay type: cell-based; conditions: MDA-MB-231 and MDA-MB-468, 1 μM
T1 construct: Immunoprecipitation of YB-1 from protein lysates of SU056-treated MDA-MB-231 and MDA-MB-468 cells using YB-1 antibody; endogenous in cells; host or cells: MDA-MB-231; MDA-MB-468
Protocol: MDA-MB-231 and MDA-MB-468 cells with and without SU056 (1 μM) treatment for 6 and 12 h respectively and were lysed using M-PER lysis solution (Thermo Scientific, #78503), supplemented with Halt protease and phosphatase inhibitor cocktail (Thermo Scientific, #78440). Precleaned 300 μg protein lysate was incubated overnight at 4°C with 3 μg YB-1 (Abcam, #ab76149) on nutating rocker. The antibody was pulled down using 20 μL Protein A/G magnetic beads (Thermo scientific #88802). After three washings, beads were resuspended in 2X SDS sample buffer followed by heating at 90°C–100°C for 5 min. Samples were resolved and probed with indicated antibodies as described in immunoblotting assay.

[9] = mouse, female C57BL/6J mice, plasma

In the case of `O=C1OCC2=C1C(c1cccc(F)c1)c1cc3c(cc1N2CCO)OCO3` (stereo not drawn) [SU056, 9-(3-fluorophenyl)-5-(2-hydroxyethyl)-6,9-dihydro-[1,3]dioxolo[4,5-g]furo[3,4-b]quinolin-8(5H)-one], the “tumor volume reduced compared to vehicle control” value [1] is reported as 49.8%, the tumor weight decreased [1] is reported as 34.67% and the “tumor volume reduced compared to vehicle control” value [2] is reported as 63.1%. The tumor weight decreased [2] was 43.6%, the tumor growth decreased [3] was 51.35% and the tumor weight reduced [3] was 48.89%. For the same compound, the “reduction in tumor weight” value [4] was 29%, the “tumor volume reduced compared to control” value [4] was 37% and the “time a cytotoxic concentration remained in the plasma” value ([5]; mice) was “up to 6 h”. For the same compound, the half-life ([5]; female, C57BL/6J, mouse, plasma, po, 20 mg/kg, female C57BL/6J mice, plasma, read-out: half-life (T1/2)) was about 60 min, the Cmax [5, 9] was 9980 ng/mL and 27 µM and the Tmax [5, 9] was 15 min. The kinase activity inhibition [6] was “does not inhibit”, the “effect on major pharmacological parameters (binding and enzyme assays)” value [7] was “does not affect” and the “YB-1 and RPL11 interaction” value [8] was “inhibits”.
